This is an account of results in patent publication US9242944B2 (UNIVERSITY OF MARYLAND, BALTIMORE, priority 2013, dated 2016).

The IC50 is the concentration that gives 50% inhibition. As usually defined, the inhibition is the change of the read-out against control, counted positive when it falls. A word on the Kd: it is a measure of binding affinity in units of concentration.

“Also recorded” adds a separate entry of the source. Read-outs that look alike come from different tables or passages of the source.

Assay [1] deals with T1, c-Myc-Max heterodimers (Homo sapiens, UniProt P01106).
T1 construct: c-Myc bHLH-ZIP domain (residues 353-437); His6-TEV protease substrate tag; made in house; host or cells: bacteria (pET151 vector for Myc)
Briefly: Electrophoretic mobility shift assay (EMSA) of c-Myc-Max dimerization and DNA binding. The conditions noted are these: for IC50: 50% inhibition of c-Myc-Max dimerization and DNA binding in EMSAs. Here is the method:
The ability of a small-molecule to interfere with c-Myc-Max dimerization is conveniently assessed through the disruption of the c-Myc-Max/DNA ternary complex by an electrophoretic mobility shift assay (EMSA) using fluorescently-labelled DNA, and subsequently quantified by densitometry.(23) Accordingly, a 100-member library was screened for the ability to disrupt the c-Myc-Max dimer.
These were performed essentially as described previously (23). Briefly, Ni^+-agarose-purified His6-tagged c-Myc bHLH-ZIP domain (residues 353-437) was used for all binding assays as was the His6-tagged 151 residue isoform of Max, otherwise referred to as Max(S) (residues 2-151) (21). For each binding reaction, the proteins were allowed to heterodimerize at a concentration of 30 nM each in the presence of 20 nM of a 5′-HEX-tagged double-stranded 22-base pair oligonucleotide 5′-hexachlorofluoresceine-[…]-3′ (SEQ ID NO: 1) containing a consensus c-Myc binding site (CACGTG) and the indicated concentration of small molecule inhibitor. Control reactions contained the same oligonucleotide in the presence of 60 nM of the 160 residue isoform of Max referred to as Max(L) (21). All binding reactions were prepared in a buffer consisting of PBS (pH 7.3), 1 mmol/L EDTA, 0.1% NP40, 5% glycerol, 1 mmol/L DTT, and 0.4 mg/mL bovine serum albumin. Electrophoresis was performed on 8% polyacrylamide/bisacrylamide (80:1) gels in […] (23). Each reaction was run on at least three separate occasions.
EMSAs were performed essentially as described utilizing bacterially-expressed recombinant proteins purified nearly to homogeneity.(23) Experiments with Max homodimers used the His6-tagged 160 amino acid isoform of the protein, termed Max(L), which homodimerizes and binds DNA well. For studies with Myc-Max heterodimers, the His6-tagged 151 residue isoform of Max [Max(S)] was used, which binds DNA well as a heterodimer with Myc but poorly as a homodimer.(23) Recombinant Myc protein, expressed in the pET151 vector, consisted of the His6-TEV protease substrate-tagged 85 amino acid bHLH-ZIP domain. (23) Each protein was purified by Ni-agarose affinity chromatography as previously described. (23) The His6-TEV tag was removed from the Myc protein by TEV protease cleavage followed by re-purification using Ni-agarose affinity chromatography to remove the His6-TEV protease and the cleaved His6-TEV tag as previously described. Binding assays were performed with 30 nM of each protein and 30 nM of a 6-carboxy-2′,4,4′,5′,7,7′-hexachlorofluorescein (HEX)-tagged double-stranded oligonucleotide containing a consensus Myc binding site (IDT, Coralville, Iowa).(23)
For orientation: Mobility shift assays separate free from complexed probe on a gel.

The target in assay [2] is T2, Max-Max homodimers (Homo sapiens, UniProt P61244).
T2 construct: His6; made in house; host or cells: bacteria
Briefly: EMSA of Max-Max homodimerization and DNA binding. The conditions noted are these: for IC50: 50% inhibition of Max-Max dimerization and DNA binding in EMSAs.

Assay [3] deals with HL60 cells. Briefly: Growth inhibition (MTT assay) in HL60 cells. It is filed as cell-based, human. The conditions noted are these: for IC50: Homo sapiens, HL-60, MTT assay; for IC50 HL60: MTT assay. The protocol: (§1) These were performed using HL60 human promyelocytic leukemia cells or Daudi Burkitt lymphoma cells essentially as described previously (23). Briefly, cells were seeded into 96 well dishes (5000 cells/well and 10,000 cells/well for HL60 and Daudi cells, respectively). Growth medium consisted of RPMI medium supplemented with Penicillin/Streptomycin, glutamine and 10% fetal bovine serum. The indicated concentrations of each compound were then added and 10-point growth inhibition assays were performed 3-5 days later using the MTT assay. Each point was performed in quadruplicate.
(§2) Daudi Burkitt lymphoma and HL60 promyelocytic leukemia cells were maintained in RPMI medium supplemented with 10% fetal bovine serum.(23) For growth inhibition studies, 3×10^3 cells were seeded in 96 well plates in the presence of serial dilutions of each compound. A total of 10 dilutions, ranging from 0.1 to 50 μM were performed for each compound. Standard MTT assays (23) were used to quantify cell number 3-4 days later and compared to wells exposed to DMSO vehicle only.

For assay [4], the system named is Daudi cells. Briefly: Growth inhibition (MTT assay) in Daudi cells. The assay is classed as cell-based. The conditions noted are these: for IC50: Homo sapiens, Daudi. The protocol: as §1, §2
Background: Tetrazolium assays rely on reduction of a dye to a coloured formazan, in cell work by metabolically active cells.

Where [5] appears, read: Table 10, 100 μM small-molecule, EMSA, read-out: % Inhibition of c-Myc-Max Dimerization.
Setting [6] is: 10-point serial dilution, quadruplicate, read-out: IC50 HL60.
Setting [7] is: 10-point serial dilution, quadruplicate.
Setting [8] is: 10-point serial dilution, quadruplicate, read-out: IC50 Daudi.
[9] abbreviates: Table 11, 100 uM, EMSA, read-out: % Inhibition of c-Myc-Max Dimerization.

T2 sequence (P61244 whole entry): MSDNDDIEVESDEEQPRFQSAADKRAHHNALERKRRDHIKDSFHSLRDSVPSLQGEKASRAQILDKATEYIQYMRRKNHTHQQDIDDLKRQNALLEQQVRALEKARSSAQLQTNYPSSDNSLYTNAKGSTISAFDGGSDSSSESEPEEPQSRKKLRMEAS
T1 sequence (P01106 368-452, one chain of several): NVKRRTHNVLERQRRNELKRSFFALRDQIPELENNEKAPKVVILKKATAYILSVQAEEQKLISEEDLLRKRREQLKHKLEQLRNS

In the case of `Cc1ccc(-c2cc(C(=O)O)ccc2Nc2ccc([N+](=O)[O-])c3nonc23)cc1` [Compound 3jc53-6, 4′-Methyl-6-((7-nitrobenzo[c][1,2,5]oxadiazol-4-yl)amino)-[1,1′-biphenyl]-3-carboxylic acid], the IC50 in assay [1], in assay [2], in assay [3] (setting [6]) and in assay [4] (setting [8]) was over 100 µM each time. For the same compound, the “inhibition of c-Myc-Max dimerization in vitro (in words)” value in assay [1] (EMSA) is “inactive in vitro”. Besides, the inhibition at 100 µM in assay [1] (setting [5]) turned out to be 16%. For the same compound, the “IC50 HL60” value in assay [3] (setting [7]) was “inactive”. Besides, the “IC50 Daudi” value in assay [4] (setting [7]) was “inactive”.
As to `COC(=O)c1ccc(Nc2ccc([N+](=O)[O-])c3nonc23)c(-c2ccc(C(F)(F)F)cc2)c1` [Compound 4jc23-4, Methyl 6-((7-nitrobenzo[c][1,2,5]oxadiazol-4-yl)amino)-4′-(trifluoromethyl)-[1,1′-biphenyl]-3-carboxylate], the IC50 in assay [1] is 75 µM; in assay [2], over 100 µM; in assay [3] (setting [6]) it was 0.877 ± 0.07 µM; in assay [3] (read-out: IC50 against HL60 cells), 0.877 µM; in assay [4] (setting [8]), 0.5 ± 0.025 µM; in assay [4] (read-out: IC50 against Daudi cells), 0.5 µM. Also, the inhibition at 100 µM in assay [1] (setting [5]) was 74%.
As to `O=C(O)c1ccc(Nc2ccc([N+](=O)[O-])c3nonc23)cc1` [JY-3-094, 4-((7-Nitrobenzo[c][1,2,5]oxadiazol-4-yl)amino)benzoic acid], the IC50 in assay [1] is 33 µM; in assay [2], over 100 µM; in assay [3] (setting [6]) it was over 100 µM; in assay [4] (setting [8]) it was over 100 µM. In assay [1] (EMSA), the “c-Myc-Max inhibitory potency relative to 10074-G5” value is given as “around five-fold as potent”. Moreover, the “inhibition of c-Myc-Max dimerization in vitro (in words)” value in assay [1] (EMSA) is reported as “dose-dependent inhibition”. In addition, the “selectivity for Myc-Max heterodimers over Max-Max homodimers” value in assay [1] (EMSA) is listed as “greater than three-fold selectivity; also recorded: at least three-fold selective”. Further, in assay [1] (EMSA dose-response (FIG. 4), read-out: Kd value, inhibition of Myc-Max dimerization), the Kd worked out at 33 µM. Further, the inhibition at 100 µM amounted to 94% in assay [1] (read-out: % Inhibition of c-Myc-Max Dimerization, Table 10, 100 μM small-molecule, EMSA); 94% in assay [1] (read-out: % Inhibition of c-Myc-Max Dimerization, Table 11, 100 uM, EMSA); 93% in assay [1] (read-out: Inhibition at 100 μM (%), Table 1, 100 μM compound, Myc-Max/DNA band intensity relative to control). The “activity against Max-Max homodimers” value in assay [2] (EMSA, at 100 μM) is listed as “no effect; also recorded: no activity”. Besides, the “IC50 HL60” value in assay [3] (setting [7]) was “inactive”. Moreover, the “IC50 Daudi” value in assay [4] (setting [7]) was “inactive”.
Regarding `O=C(Nc1ccccc1)c1ccc(Nc2ccc([N+](=O)[O-])c3nonc23)cc1` [JY-5-195, 4-((7-Nitrobenzo[c][1,2,5]oxadiazol-4-yl)amino)-N-phenylbenzamide], the IC50 was 57.9 µM in assay [1], over 100 µM in assay [2], 3.1 ± 0.3 µM in assay [3] (setting [6]) and 5.1 ± 0.56 µM in assay [4] (setting [8]). Further, the “IC50 HL60” value in assay [3] (setting [7]) is recorded as “single-digit micromolar”. Also, the “IC50 Daudi” value in assay [4] (setting [7]) was “single-digit micromolar”.
As to `O=C(Nc1ccccc1C(F)(F)F)c1ccc(Nc2ccc([N+](=O)[O-])c3nonc23)cc1` [JY-5-261, 4-((7-Nitrobenzo[c][1,2,5]oxadiazol-4-yl)amino)-N-(2-(trifluoromethyl)phenyl)benzamide], the IC50 in assay [1] is 71 µM; in assay [2], over 100 µM; in assay [3] (setting [6]), 5.3 ± 0.3 µM; in assay [4] (setting [8]), 3.9 ± 0.4 µM. Also, the “IC50 HL60” value in assay [3] (setting [7]) is reported as “single-digit micromolar”. The “IC50 Daudi” value in assay [4] (setting [7]) is given as “single-digit micromolar”.
`O=[N+]([O-])c1ccc(Nc2ccccc2-c2ccccc2)cc1` [SF-3-068]: in assay [1] (setting [9]), the inhibition at 100 µM is 0%.
Same read-out and setting: the result for `O=C(O)c1cc(Nc2ccccc2-c2ccccc2)ccc1[N+](=O)[O-]` [SF-3-070] reads 5%; that for `N#Cc1ccc(Nc2ccccc2-c2ccccc2)cc1` [SF-3-078], 2%.
Take `N#Cc1cc([N+](=O)[O-])ccc1Nc1ccccc1-c1ccccc1` [SF-3-079]: the inhibition at 100 µM in assay [1] (setting [9]) came out at 0%.
Regarding `N#Cc1cc(Nc2ccccc2-c2ccccc2)ccc1[N+](=O)[O-]` [SF-3-080], the inhibition at 100 µM in assay [1] (setting [9]) is 0%.
On the same count and under the same terms, the result for `O=[N+]([O-])c1ccc(Nc2ccccc2-c2ccccc2)nc1` [SF-3-081] reads 0%.
On the same count and under the same terms, then `N#Cc1ccc(Nc2ccccc2-c2ccccc2)c(Cl)c1` [SF-3-083], with 9%; and `NC(=O)c1ccc(Nc2ccccc2-c2ccccc2)cc1` [SF-3-093A], with 0%; and `O=C(O)c1ccc(Nc2ccccc2-c2ccccc2)cc1` [SF-3-093B], with 4%.
Still for that read-out and setting: then `Nc1ccc(Nc2ccccc2-c2ccccc2)cc1` [SF-3-098], with 0%; and `O=[N+]([O-])c1ccc(Nc2ccccc2-c2ccccc2)cc1O` [SF-3-101], with 0%; and `NC(=O)c1cc([N+](=O)[O-])ccc1Nc1ccccc1-c1ccccc1` [SF-3-103A], with 0%.
Consider `O=C(O)c1cc([N+](=O)[O-])ccc1Nc1ccccc1-c1ccccc1` [SF-3-103B, 2-([1,1′-biphenyl]-2-ylamino)-5-nitrobenzoic acid], for which the IC50 in assay [1] is 84 µM; in assay [2], over 100 µM; in assay [3] (setting [6]) it was over 100 µM; in assay [4] (setting [8]), over 100 µM. For the same compound, in assay [1] (EMSA), the “c-Myc-Max inhibitory potency relative to 10074-G5” value is given as “nearly two-fold more potent”. The inhibition at 100 µM in assay [1] (setting [9]) was at least 33%. Besides, in assay [3] (setting [7]), the “IC50 HL60” value was “inactive”. For the same compound, the “IC50 Daudi” value in assay [4] (setting [7]) was “inactive”.
Regarding `NC(=O)c1cc(Nc2ccccc2-c2ccccc2)ccc1[N+](=O)[O-]` [SF-3-104A], the inhibition at 100 µM in assay [1] (setting [9]) was determined as 0%.
With `COC(=O)c1ccc(Nc2ccccc2-c2ccccc2)cc1` [SF-3-105], the inhibition at 100 µM in assay [1] (setting [9]) came to 0%.
Still for that read-out and setting: then `COC(=O)c1cc([N+](=O)[O-])ccc1Nc1ccccc1-c1ccccc1` [SF-3-106], with 0%.
On the same count and under the same terms, then `COC(=O)c1cc(Nc2ccccc2-c2ccccc2)ccc1[N+](=O)[O-]` [SF-3-107], with 0%.
